Results on eleven compounds are retold here after patent US20240116985A1, “STAPLED PEPTIDES AND METHODS THEREOF” (priority 2020, published 2024).

Series [1] concerns the target T1, full-length B-Catenin (Uniprot ID P35222) (Homo sapiens, UniProt P35222).
T1 construct: 65 nM full-length B-Catenin (Uniprot ID P35222)
T1 sequence (P35222 1-781): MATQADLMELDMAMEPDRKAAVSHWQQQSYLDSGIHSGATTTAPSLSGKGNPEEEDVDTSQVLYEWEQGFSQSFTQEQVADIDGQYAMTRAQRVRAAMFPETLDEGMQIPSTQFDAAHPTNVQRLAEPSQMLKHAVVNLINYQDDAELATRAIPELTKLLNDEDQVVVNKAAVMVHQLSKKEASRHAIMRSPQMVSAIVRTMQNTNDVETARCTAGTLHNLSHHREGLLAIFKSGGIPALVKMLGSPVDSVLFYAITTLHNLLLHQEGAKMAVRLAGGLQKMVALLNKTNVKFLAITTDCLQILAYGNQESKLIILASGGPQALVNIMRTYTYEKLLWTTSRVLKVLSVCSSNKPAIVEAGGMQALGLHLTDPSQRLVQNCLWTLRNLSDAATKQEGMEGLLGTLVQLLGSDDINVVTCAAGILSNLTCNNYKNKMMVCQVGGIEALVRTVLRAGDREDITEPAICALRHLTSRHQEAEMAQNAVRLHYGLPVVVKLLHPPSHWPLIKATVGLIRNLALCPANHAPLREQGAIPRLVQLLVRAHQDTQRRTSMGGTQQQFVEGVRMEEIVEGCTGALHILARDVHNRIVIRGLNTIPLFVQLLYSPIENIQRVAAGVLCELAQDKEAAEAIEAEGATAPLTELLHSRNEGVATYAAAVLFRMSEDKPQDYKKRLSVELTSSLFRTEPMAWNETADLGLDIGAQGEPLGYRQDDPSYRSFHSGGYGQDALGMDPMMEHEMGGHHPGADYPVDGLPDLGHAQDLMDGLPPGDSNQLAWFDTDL
The series can be described thus: Alphascreen binding assay (beta-catenin / biotin-TCF4 10-53). In outline:
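AlphaScreen (Ni-chelate beads) competition in 50 mM Tris pH 8.0, 250 mM NaCl with detergents and 0.1% BSA. Peptide titrated 10 uM–5 nM against 65 nM human β-catenin bound to 10 nM biotinylated TCF4 10-53, 15 min then 60 min with beads, both at 20 °C; 1:1 Hill-slope fit.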
For orientation: Bead proximity is the source of the signal in Alpha formats.

The nature of series [2]: CHI Log D procedure. Format: physicochemical. Particulars: for CHI Log D: pH 7.4; for chromatographic logD: pH 7.4, CHI Log D.

`CC(=O)N1CCC[C@]12CC=CCCCC1(CCCC=CCCCCCC[C@@](C)(C(=O)N[C@@H](Cc3cccc(C(F)(F)F)c3)C(=O)N[C@@H](Cc3c[nH]c4ccccc34)C(=O)N[C@@H](CCC(N)=O)C(N)=O)NC(=O)[C@H](C(C)C)NC(=O)[C@H](Cc3ccccc3)NC(=O)[C@H](C)NC(=O)[C@H](C)NC(=O)[C@H](CC(=O)O)NC(=O)[C@H](CC(=O)O)NC1=O)NC(=O)[C@H](C)NC(=O)[C@H](CC(=O)O)NC2=O` (stereo partly drawn) [I-251, Ac-PL3-Asp-Ala-B5-Asp-Asp-Ala-Ala-Phe-Val-S8-3F3MeF-Trp-Gln-NH2]: the EC50 (commonly the concentration giving half of the maximal effect) in series [1] stood at 1200 nM. Also, the “CHI Log D” value in series [2] stood at 2.299.

Consider `CC(=O)N1CCC[C@]12CC=CCCCC1(CCCC=CCCCCCC[C@@](C)(C(=O)N[C@@H](Cc3ccc(C(F)(F)F)cc3)C(=O)N[C@@H](Cc3c[nH]c4ccccc34)C(=O)N[C@@H](CCC(N)=O)C(N)=O)NC(=O)[C@H](C(C)C)NC(=O)[C@H](Cc3ccccc3)NC(=O)[C@H](C)NC(=O)[C@H](C)NC(=O)[C@H](CC(=O)O)NC(=O)[C@H](CC(=O)O)NC1=O)NC(=O)[C@H](C)NC(=O)[C@H](CC(=O)O)NC2=O` (stereo partly drawn) [I-252, Ac-PL3-Asp-Ala-B5-Asp-Asp-Ala-Ala-Phe-Val-S8-4F3MeF-Trp-Gln-NH2], for which a half-maximal response in series [1] (EC50) required 3690 nM. In series [2], the “CHI Log D” value is reported as 2.214.

On to `CC(=O)N1CCC[C@]12CC=CCCCC1(CCCC=CCCCCCC[C@@](C)(C(=O)N[C@@H](Cc3ccc(C(F)(F)F)cc3)C(=O)N[C@@H](Cc3c[nH]c4ccccc34)C(=O)N[C@@H](CCC(N)=O)C(N)=O)NC(=O)[C@H](C(C)C)NC(=O)[C@H](Cc3ccccc3)NC(=O)[C@H](C)NC(=O)[C@H](C)NC(=O)[C@H](CC(=O)O)NC(=O)[C@H](CC(=O)O)NC1=O)NC(=O)[C@H](C)NC(=O)[C@H](CC(=O)O)NC2=O` (stereo partly drawn) [I-253, Ac-PL3-Asp-Ala-B5-Asp-Asp-Ala-Ala-Phe-Val-S8-4F3MeF-Trp-Gln-NH2], for which the 50% effective concentration (EC50) in series [1] came to 3690 nM. Also, the “CHI Log D” value in series [2] is 2.214.

`CC(=O)N1CCC[C@]12CC=CCCCC1(CCCC=CCCCCCC[C@@](C)(C(=O)N[C@@H](Cc3ccc(C(F)(F)F)cc3)C(=O)N[C@@H](Cc3c[nH]c4ccccc34)C(=O)N[C@@H](CCC(N)=O)C(N)=O)NC(=O)[C@H](C(C)C)NC(=O)[C@H](Cc3ccccc3)NC(=O)[C@H](C)NC(=O)[C@H](C)NC(=O)[C@H](CC(=O)O)NC(=O)[C@H](CC(=O)O)NC1=O)NC(=O)[C@H](C)NC(=O)[C@H](CC(=O)O)NC2=O` (stereo partly drawn) [I-254, Ac-PL3-Asp-Ala-B5-Asp-Asp-Ala-Ala-Phe-Val-S8-4F3MeF-Trp-Gln-NH2] registered an EC50 in series [1] of 1960 nM. Further, the “CHI Log D” value in series [2] stood at 2.232.

`CC(=O)N1CCC[C@]12CC=CCCCC1(CCCC=CCCCCCC[C@@](C)(C(=O)N[C@@H](Cc3ccc(C(F)(F)F)cc3)C(=O)N[C@@H](Cc3c[nH]c4ccccc34)C(=O)N[C@@H](CCC(N)=O)C(N)=O)NC(=O)[C@H](C(C)C)NC(=O)[C@H](Cc3ccccc3)NC(=O)[C@H](C)NC(=O)[C@H](C)NC(=O)[C@H](CC(=O)O)NC(=O)[C@H](CC(=O)O)NC1=O)NC(=O)[C@H](C)NC(=O)[C@H](CC(=O)O)NC2=O` (stereo partly drawn) [I-255, Ac-PL3-Asp-Ala-B5-Asp-Asp-Ala-Ala-Phe-Val-S8-4F3MeF-Trp-Gln-NH2]: in series [1], the response was half-maximal at 1960 nM (EC50). Moreover, the “CHI Log D” value in series [2] came out at 2.232.

In series [1], `CC(=O)N1CCC[C@]12CC=CCCCC1(CCCC=CCCCCCC[C@@](C)(C(=O)N[C@@H](Cc3ccccc3)C(=O)N[C@@H](Cc3c[nH]c4ccccc34)C(=O)N[C@@H](CCC(N)=O)C(N)=O)NC(=O)[C@H](C(C)C)NC(=O)[C@H](Cc3ccccc3)NC(=O)[C@H](C)NC(=O)[C@H](C)NC(=O)[C@H](Cc3ccc(F)c(F)c3)NC(=O)[C@H](CC(=O)O)NC1=O)NC(=O)[C@H](C)NC(=O)[C@H](CC(=O)O)NC2=O` (stereo partly drawn) [I-259, Ac-PL3-Asp-Ala-B5-Asp-34FF-Ala-Ala-Phe-Val-S8-Phe-Trp-Gln-NH2] displayed an EC50 of 4180 nM. Also, in series [2], the chromatographic logD (in general, a lipophilicity value derived from retention on a column) stood at 2.9.

Take `CC(=O)N1CCC[C@]12CC=CCCCC1(CCCC=CCCCCCC[C@@](C)(C(=O)N[C@@H](Cc3ccccc3)C(=O)N[C@@H](Cc3c[nH]c4ccccc34)C(=O)N[C@@H](CCC(N)=O)C(N)=O)NC(=O)[C@H](C(C)C)NC(=O)[C@H](Cc3ccccc3)NC(=O)[C@H](C)NC(=O)[C@H](C)NC(=O)[C@H](Cc3ccncc3)NC(=O)[C@H](CC(=O)O)NC1=O)NC(=O)[C@H](C)NC(=O)[C@H](CC(=O)O)NC2=O` (stereo partly drawn) [I-272, Ac-PL3-Asp-Ala-B5-Asp-4PyrA-Ala-Ala-Phe-Val-S8-Phe-Trp-Gln-NH2]: in series [1], the EC50 is 1010 nM. The chromatographic logD in series [2] came to 2.46.

Turning to `CC(=O)N1CCC[C@]12CC=CCCCC1(CCCC=CCCCCCC[C@@](C)(C(=O)N[C@@H](Cc3ccc4ccccc4c3)C(=O)N[C@@H](Cc3c[nH]c4ccccc34)C(=O)N[C@@H](CCC(N)=O)C(N)=O)NC(=O)[C@H](C(C)C)NC(=O)[C@H](Cc3ccccc3)NC(=O)[C@H](C)NC(=O)[C@H](C)NC(=O)[C@H](CC(=O)O)NC(=O)[C@H](CC(=O)O)NC1=O)NC(=O)[C@H](C)NC(=O)[C@H](CC(=O)O)NC2=O` (stereo partly drawn) [I-278, Ac-PL3-Asp-Ala-B5-Asp-Asp-Ala-Ala-Phe-Val-S8-2NapA-Trp-Gln-NH2], the concentration for a half-maximal effect (EC50) in series [1] worked out at 2230 nM. Besides, in series [2], the “CHI Log D” value worked out at 2.209.

In series [1], `CC(=O)N1CCC[C@]12CC=CCCCC1(CCCC=CCCCCCC[C@@](C)(C(=O)N[C@@H](Cc3ccccc3)C(=O)N[C@@H](Cc3c[nH]c4ccccc34)C(=O)N[C@@H](CCC(N)=O)C(N)=O)NC(=O)[C@H](C(C)C)NC(=O)[C@H](Cc3ccccc3)NC(=O)[C@H](C)NC(=O)[C@H](C)NC(=O)[C@H](CC(=O)O)NC(=O)[C@H](CC(=O)O)NC1=O)NC(=O)[C@H](C)NC(=O)[C@H](CCC(=O)O)NC2=O` (stereo partly drawn) [I-279, Ac-PL3-Glu-Ala-B5-Asp-Asp-Ala-Ala-Phe-Val-S8-Phe-Trp-Gln-NH2] displayed an EC50 of 4960 nM. Also, the “CHI Log D” value in series [2] was found to be 1.973.

Consider `CC(=O)N1CCC[C@]12CC=CCCCC1(CCCC=CCCCCCC[C@@](C)(C(=O)N[C@@H](CC(=O)O)C(=O)N[C@@H](Cc3c[nH]c4ccccc34)C(=O)N[C@@H](CCC(N)=O)C(N)=O)NC(=O)[C@H](C(C)C)NC(=O)[C@H](Cc3ccccc3)NC(=O)[C@H](C)NC(=O)[C@H](C)NC(=O)[C@H](CC(=O)O)NC(=O)[C@H](CC(=O)O)NC1=O)NC(=O)[C@H](C)NC(=O)[C@H](CC(=O)O)NC2=O` (stereo partly drawn) [I-283, Ac-PL3-Asp-Ala-B5-Asp-Asp-Ala-Ala-Phe-Val-S8-Asp-Trp-Gln-NH2], for which the EC50 in series [1] came out at 9540 nM. For the same compound, in series [2], the chromatographic logD amounted to 1.29.

`CC(=O)N1CCC[C@]12CC=CCCCC1(CCCC=CCCCCCC[C@@](C)(C(=O)N[C@@H](Cc3ccccc3)C(=O)N[C@@H](Cc3c[nH]c4ccccc34)C(N)=O)NC(=O)[C@H](C(C)C)NC(=O)[C@H](Cc3ccccc3)NC(=O)[C@H](C)NC(=O)[C@H](C)NC(=O)[C@H](CC(=O)O)NC(=O)[C@H](CC(=O)O)NC1=O)NC(=O)[C@H](C)NC(=O)[C@H](CC(=O)O)NC2=O` (stereo partly drawn) [I-289, Ac-PL3-Asp-Ala-B5-Asp-Asp-Ala-Ala-Phe-Val-S8-Phe-Trp-NH2] showed an EC50 in series [1] of 626 nM. Moreover, the “CHI Log D” value in series [2] was 2.242.
